Data as given in patent US11976280B2, “SMAC/Diablo inhibitors useful for treating cancer” (THE NATIONAL INSTITUTE FOR BIOTECHNOLOGY IN THE NEGEV LTD., priority 2017, dated 2024).
d = 2'-deoxy (DNA); r = 2'-OH (RNA)

Columns and labels:
WI38 and HaCat cells = assay: SRB cell growth assay, immortalized non-cancerous cell lines; assay type: cell-based, human
Protocol: The siRNAs were synthesized by Genepharma (Suzhou, China). Cells were seeded (150,000 cells/well) on 6-well culture dishes to 40-60% confluence and transfected with 10-100 nM si-NT or si-hSMAC/Diablo using the JetPRIME transfection reagent (Illkirch, France), according to the manufacturers' instructions.
Twenty-four hours post-transfection with si-NT or si-hSMAC, cells (10,000/well) were counted and seeded in 96-well plates. After additional 48, 72 or 96 hours, the cells were washed with PBS, fixed with 10% trichloroacetic acid, and stained with SRB. SRB was extracted from the cells using 100 mM Tris base and absorbance at 510 nm was determined using an Infinite M1000 plate reader (Tecan, Männedorf, Switzerland).
The effect of the SMAC/Diablo silencing on cell growth was examined using the sulforhodamine B (SRB) assay. […] Three other siRNAs designed to target hSMAC (B to D as described hereinabove) were also found to inhibit SMAC/Diablo expression and cell growth to various degrees (FIG. 2I, 2J).

HeLa, A549 or H358 cells = assay: Cell death analysis, PI / FITC-Annexin V staining and flow cytometry; assay type: cell-based, human; details: cells silenced for SMAC/Diablo; no significant cell death
Protocol: Cells death was analyzed by propidium iodide (PI) staining and flow cytometer (Beckton-Dickinson, San Jose, CA) and BD CellQuest Pro software, or using acridine orange ethidium bromide staining (Abu-Hamad, S., et al., 2009. J Cell Sci, 122(Pt 11): p. 1906-1916).
Moreover, apoptosis was induced by over-expressing SMAC/Diablo or SMAC/Diablo-GFP in HeLa, A549 and H358 cells in a concentration- and time-dependent manner, again as expected (FIG. 3D-3F).

[1] = test system: MDA-MB-231 cell xenografts; assay: MDA-MB-231 breast cancer xenograft in nude mice; assay type: in vivo; details: 700 nM
Protocol: FIGS. 5A-5G depict that si-hSMAC-A inhibited cell growth in vitro and tumor growth of breast cancer xenografts: (FIG. A) MDA-MB-231 cells were transfected with si-NT (50 nM) or si-hSMAC-A (100 nM) and analyzed for cell growth at the indicated time using the SRB method (n=3) (Control (●), si-NT (◯), si-hSMAC-A (▴); (FIG. 5B) MDA-MB-231 cells were transfected with si-NT or si-hSMAC-A and at the indicated time cells were harvested and analyzed for SMAC/Diablo levels by immunoblotting. (3-actin was used as a loading control; (FIG. 5C) MDA-MB-231 cells (3×10^6 cells/mouse) were inoculated into nude mice. Tumor volumes were monitored (using a digital caliper) and on day 18, the mice were divided into two groups (n=8 each) with each mouse in the group containing a tumor with a volume between 60 and 100 mm^3 and similar average volumes measured per group. The two mice groups were subjected to the following treatments: Xenografts were injected with si-NT (●, 350 nM) or si-hSMAC-A (▴, 700 nM). (FIG. 5D) Represents photomicrograph of dissected tumors from mouse MDA-MB-231 cell xenografts treated with si-NT or si-hSMAC-A; (FIG. 5E) Bar-graph represents dissected tumors weight from MDA-MB-231 cell xenografts; calculated average tumor volumes are presented as means±SEM, ***P<0.001 (FIG. 5F, FIG. 5G) Dissected tumors were subjected to immunohistochemistry. […]

si-hSMAC-A: siRNA to human SMAC/Diablo; sense 5′AAGCGGUGUUUCUCAGAAUUGtt3′ (SEQ ID NO:20), antisense 5′AACAAUUCUGAGAAACCCGCtt3′ (SEQ ID NO:21) (sense AAGCGGUGUUUCUCAGAAUUGTT; antisense AACAAUUCUGAGAAACCCGCTT; sense: sugars from the 5' end r21 d2, backbone not given here; antisense: sugars from the 5' end r20 d2, backbone not given here)
cell growth of non-cancerous cell lines (WI38 and HaCat cells): did not affect cell growth
cell death (HeLa, A549 or H358 cells): 5-10%
tumor growth of breast cancer xenografts [1]: inhibited
